What was measured:
[1] = test system: MCF7 cells; assay: Quantitative nanoLC-MS/MS (TMT) of ADMA-containing peptides, CARM1 KO vs parental; format: cell-based, human; set-up: Fold change KO/WT: scale not given here
[2] = test system: MCF7 CARM1 KO cells; assay: Quantitative MS of ADMA-containing peptides in MCF7 CARM1 KO cells expressing CARM1 28-608 or CARM1 140-608, and in CARM1 KO; format: cell-based, human
[3] = MCF7, CARM1 KO (KO1-KO3) vs wild type (WT1-WT3)
[4] = CARM1 140-608 vs WT, mean of 3 replicates (log2 scale)
[5] = KO vs WT, mean of 3 replicates (log2 scale)
[6] = ADMA-containing peptide, MCF7, CARM1 knockout (KO1-3) vs wild type (WT1-3), TMT 6-plex experiment #1
[7] = log2 scale ratio, mean of n = 3
[8] = MCF7, CARM1 knockout vs wild type, n = 3 each
[9] = ratio on log2 scale, mean of 3 replicates
[10] = MCF7, CARM1 KO vs WT, three biological replicates each
[11] = CARM1 140-608 vs WT, mean of 3 replicates, log2
[12] = KO vs WT, mean of 3 replicates, log2
[13] = CARM1 KO vs wild type MCF7 cells, 3 biological replicates each
[14] = CARM1 140-608 versus WT, difference of mean log2 values
[15] = CARM1 KO versus WT, difference of mean log2 values
[16] = CARM1 140-608 versus WT, mean of three replicates (log2)
[17] = KO versus WT, mean of three replicates (log2)
[18] = mean, CARM1 140-608 versus WT (log2 scale)
[19] = mean, CARM1 KO versus WT (log2 scale)
[20] = ADMA-containing peptide, CARM1 knockout (KO) vs wild type (WT) MCF7 cells, 6-plex TMT experiment #1, three biological replicates each, sheet "MCF7"
[21] = MCF7 CARM1 knockout vs wild type, 3 biological replicates each, values are on log2 scale
[22] = difference of log2 means, CARM1 140-608 vs WT
[23] = difference of log2 means, KO vs WT

## GTVVTPVQVPLLPVPSQPrPAVGPQrFPGPPEFPQHTPGPVPNSFSQPPrLPLQDQWrAPPPPQDR
[1]; [3]
  Fold change KO/WT: -3.321
[2]; [4]
  CARM1 140-608/WT: -1.653
[2]; [5]
  KO/WT: -3.712

## SPFLGSArPrLrFSPYQIPVTIPPSTSLLTTGLASEGSK
[1]; [6]
  Fold change KO/WT: -3.915
[2]; [7]
  CARM1 140-608/WT: -2.053
  KO/WT: -3.915

## GrGFAGVCGFGGPYGETVATGPYrAFR
[1]; [8]
  Fold change KO/WT: -1.965
[2]; [9]
  CARM1 140-608/WT: -1.219
  KO/WT: -1.965

## LIAAAQSGLPVrIESIK
[1]; [3]
  Fold change KO/WT: -0.4316
[2]; [4]
  CARM1 140-608/WT: -0.3613
[2]; [5]
  KO/WT: -0.4316

## KDLYANTVLSGGSTMYPGIADr
[1]; [10]
  Fold change KO/WT: -0.3193
[2]; [11]
  CARM1 140-608/WT: -0.3764
[2]; [12]
  KO/WT: -0.3193

## GPLPPPRPTPrPPVPPrGPLrGPLPQ
[1]; [3]
  Fold change KO/WT: -0.7434
[2]; [4]
  CARM1 140-608/WT: 0.8489
[2]; [5]
  KO/WT: -0.7434

## LTVPrYSIPTGDPPPYPEIASQLAQGR
[1]; [13]
  Fold change KO/WT: -2.163
[2]; [14]
  CARM1 140-608/WT: -0.6093
[2]; [15]
  KO/WT: -2.766

## GRPSSPrTPLYLQPDAYGSLDR
[1]; [3]
  Fold change KO/WT: -1.386
[2]; [16]
  CARM1 140-608/WT: -1.266
[2]; [17]
  KO/WT: -1.386

## LEPPLTPrCPLDFAPQTLSFPYAR
[1]; [10]
  Fold change KO/WT: -5.801
[2]; [11]
  CARM1 140-608/WT: -2.973
[2]; [12]
  KO/WT: -5.801

## QGQPTPLVIQQPPKPGALIrPPQVTLTQTPMVALrQPHNR
[1]; [6]
  Fold change KO/WT: -2.284
[2]; [7]
  CARM1 140-608/WT: -1.328
  KO/WT: -2.284

## APrSLIPPIPVSPPILAPrLSSGALK
[1]; [3]
  Fold change KO/WT: -1.927
[2]; [4]
  CARM1 140-608/WT: -0.773
[2]; [5]
  KO/WT: -1.927

## QrGVSHAMGGrGGINR
[1]; [6]
  Fold change KO/WT: 0.102
[2]; [7]
  CARM1 140-608/WT: 0.2049
  KO/WT: 0.2554

## GPGGPrGGLGGGMR
[1]; [8]
  Fold change KO/WT: 0.08213
[2]; [18]
  CARM1 140-608/WT: 0.09567
[2]; [19]
  KO/WT: -0.1983

## QPQPAQNVLAAPrLR
[1]; [20]
  Fold change KO/WT: -1.672
[2]; [16]
  CARM1 140-608/WT: -0.6318
[2]; [17]
  KO/WT: -1.672

## GPrFEGNrPDGPrPrYEGHPAEGTK
[1]; [13]
  Fold change KO/WT: -5.083
[2]; [14]
  CARM1 140-608/WT: -4.084
[2]; [15]
  KO/WT: -5.484

## RPEFMrGGGSGGGR
[1]; [6]
  Fold change KO/WT: 0.64
[2]; [7]
  CARM1 140-608/WT: 0.07419
  KO/WT: 0.64

## AGSQGGrGGGAQAAAR
[1]; [10]
  Fold change KO/WT: 0.4231
[2]; [11]
  CARM1 140-608/WT: 0.1432
[2]; [12]
  KO/WT: 0.7684

## EIrYSLLPFANESGTSAAAEVNR
[1]; [21]
  Fold change KO/WT: -3.011
[2]; [22]
  CARM1 140-608/WT: -1.601
[2]; [23]
  KO/WT: -3.011

## DQPGTSAVPNLASVGTrLPPPLPQNLLYTVSER
[1]; [3]
  Fold change KO/WT: -4.596
[2]; [16]
  CARM1 140-608/WT: -1.1192
[2]; [17]
  KO/WT: -4.635

## STArFTLNPNPTGVQNPHIER
[1]; [20]
  Fold change KO/WT: -1.9764
[2]; [22]
  CARM1 140-608/WT: -1.926
[2]; [23]
  KO/WT: -2.347

## VrINLQQQPPPLQIK
[1]; [6]
  Fold change KO/WT: -3.801
[2]; [7]
  CARM1 140-608/WT: -1.463
  KO/WT: -4.329

## TPLLGDGPrAPFNQEGQSTGPPPLIPGLGQQGAQGR
[1]; [13]
  Fold change KO/WT: -4.991
[2]; [14]
  CARM1 140-608/WT: -4.072
[2]; [15]
  KO/WT: -5.54

## CDPVPAANGAIrFHCDPTFWAK
[1]; [13]
  Fold change KO/WT: -1.494
[2]; [14]
  CARM1 140-608/WT: -1.543
[2]; [15]
  KO/WT: -1.494

## FEGPQGQLGGGCPLrFEGPPGPVGTPLrFEGPIGQAGGGGFR
[1]; [20]
  Fold change KO/WT: -2.35
[2]; [16]
  CARM1 140-608/WT: 1.054
[2]; [17]
  KO/WT: -2.35

## SAPWNSFLPPPPPMPGPrLGPGKPGLK
[1]; [6]
  Fold change KO/WT: -1.936
[2]; [4]
  CARM1 140-608/WT: -1.2
[2]; [5]
  KO/WT: -1.936

## GGrGPFPLQVVSVGGPAR
[1]; [8]
  Fold change KO/WT: -0.2975
[2]; [9]
  CARM1 140-608/WT: -0.1124
  KO/WT: -0.2975

## QLrYQQPGPGSSPSSFLLK
[1]; [10]
  Fold change KO/WT: -4.8874
[2]; [11]
  CARM1 140-608/WT: -1.181
[2]; [12]
  KO/WT: -5.114

## EVVrYLGGSGGAGGR
[1]; [3]
  Fold change KO/WT: 0.2966
[2]; [4]
  CARM1 140-608/WT: -0.0149
[2]; [5]
  KO/WT: 0.2966

## VGVPTAVQNLAPrAAVAAAAPrAVAPYK
[1]; [20]
  Fold change KO/WT: -3.907
[2]; [16]
  CARM1 140-608/WT: 0.2214
[2]; [17]
  KO/WT: -3.003

## WrYNKPLPPTPDLPQPHLPPISAPGSSR
[1]; [10]
  Fold change KO/WT: -1.565
[2]; [11]
  CARM1 140-608/WT: -1.118
[2]; [12]
  KO/WT: -1.565

## SPGVFRPEQDPVPrMPFEK
[1]; [3]
  Fold change KO/WT: -2.083
[2]; [4]
  CARM1 140-608/WT: -0.5664
[2]; [5]
  KO/WT: -2.083

## AQPFAQPPGPWPLSSPGPrLVFNR
[1]; [8]
  Fold change KO/WT: -4.7261
[2]; [9]
  CARM1 140-608/WT: -2.181
  KO/WT: -4.994

## CAGFLEPTWLAAPPrLARPPR
[1]; [8]
  Fold change KO/WT: -1.902
[2]; [9]
  CARM1 140-608/WT: -0.2739
  KO/WT: -1.902

## SAPrLNTTNAWGAAPPSLGSQPLYR
[1]; [8]
  Fold change KO/WT: -1.593
[2]; [9]
  CARM1 140-608/WT: -0.6132
  KO/WT: -1.593

## DLPLHPrGFLPGHAPFrPLGSLGPrEYFIPGTrLPPPTHGPQEYPPPPAVR
[1]; [20]
  Fold change KO/WT: -1.638
[2]; [22]
  CARM1 140-608/WT: -0.2675
[2]; [23]
  KO/WT: -2.443

## ErLALAGPQLrPEMSYPDR
[1]; [3]
  Fold change KO/WT: -2.989
[2]; [4]
  CARM1 140-608/WT: -2.2623
[2]; [5]
  KO/WT: -2.989

## AGIGVYWGPGHPLNVGIrLPGR
[1]; [3]
  Fold change KO/WT: -0.8432
[2]; [4]
  CARM1 140-608/WT: -0.6349
[2]; [5]
  KO/WT: -0.8432

## TSGELGPFNNGASYPLQAGQPrLTK
[1]; [20]
  Fold change KO/WT: -4.512
[2]; [22]
  CARM1 140-608/WT: -2.866
[2]; [23]
  KO/WT: -4.63

## FIQPrPTLNQPPPPLIrPANSMPPR
[1]; [3]
  Fold change KO/WT: -1.957
[2]; [4]
  CARM1 140-608/WT: 0.9302
[2]; [5]
  KO/WT: -1.231

## RAPAGGSLGrALMR
[1]; [20]
  Fold change KO/WT: 0.1845
[2]; [22]
  CARM1 140-608/WT: 0.2074
[2]; [23]
  KO/WT: 0.5402

## QGSIGLYTQNQPLPAGGPrVDPYrPVrLPMQK
[1]; [20]
  Fold change KO/WT: -2.292
[2]; [22]
  CARM1 140-608/WT: -2.266
[2]; [23]
  KO/WT: -3.357

## SPYTTTrYGSPINTFTVrPGTR
[1]; [10]
  Fold change KO/WT: -3.428
[2]; [11]
  CARM1 140-608/WT: -2.642
[2]; [12]
  KO/WT: -5.424

## QTGSPGMIYSTrYGSPK
[1]; [21]
  Fold change KO/WT: -3.282
[2]; [18]
  CARM1 140-608/WT: -2.435
[2]; [19]
  KO/WT: -3.403

## QIrFSQGQQLVTK
[1]; [10]
  Fold change KO/WT: -2.537
[2]; [9]
  CARM1 140-608/WT: -1.837
  KO/WT: -2.537

## LQEVSLrQGMr
[1]; [10]
  Fold change KO/WT: -0.8557
[2]; [9]
  CARM1 140-608/WT: 0.07113
  KO/WT: -0.8557

## VrATSVLPrYGPPCLFK
[1]; [6]
  Fold change KO/WT: -2.652
[2]; [7]
  CARM1 140-608/WT: -1.769
  KO/WT: -2.652

## KPLPLGVrAPLAGPSAAAR
[1]; [3]
  Fold change KO/WT: -2.562
[2]; [4]
  CARM1 140-608/WT: -2.373
[2]; [5]
  KO/WT: -2.562

## APGPrGSYLGGYSAGR
[1]; [3]
  Fold change KO/WT: -0.1976
[2]; [4]
  CARM1 140-608/WT: -0.09328
[2]; [5]
  KO/WT: -0.2416

## YSAFQLAPFQDHGLPAVSVDSPVrYK
[1]; [13]
  Fold change KO/WT: -2.156
[2]; [14]
  CARM1 140-608/WT: -1.433
[2]; [15]
  KO/WT: -2.156

## DPFSQALSrCQLQQAAALNAQHK
[1]; [8]
  Fold change KO/WT: -2.1
[2]; [9]
  CARM1 140-608/WT: -1.585
  KO/WT: -2.1

## AFSSrSYTSGPGSrISSSSFSR
[1]; [21]
  Fold change KO/WT: -1.022
[2]; [22]
  CARM1 140-608/WT: -1.259
[2]; [23]
  KO/WT: -1.022

## GLPTTTQrVGVPTAVQNLAPrAAVAAAAPrAVAPYK
[1]; [20]
  Fold change KO/WT: -2.96
[2]; [16]
  CARM1 140-608/WT: -1.934
[2]; [17]
  KO/WT: -2.638

— paper PMC5458078, “Global mapping of CARM1 substrates defines enzyme specificity and substrate recognition” (Nature Communications, 2017)
